# Measurements reported in patent US9156796B2, “Benzoimidazole-carboxylic acid amide derivatives as APJ receptor modulators” (SANOFI, priority 2013, dated 2015).
# Target: T1, human apelin receptor (Homo sapiens, UniProt P35414)
# T1 construct: expressed in transfected cells
# T1 sequence (P35414 1-380): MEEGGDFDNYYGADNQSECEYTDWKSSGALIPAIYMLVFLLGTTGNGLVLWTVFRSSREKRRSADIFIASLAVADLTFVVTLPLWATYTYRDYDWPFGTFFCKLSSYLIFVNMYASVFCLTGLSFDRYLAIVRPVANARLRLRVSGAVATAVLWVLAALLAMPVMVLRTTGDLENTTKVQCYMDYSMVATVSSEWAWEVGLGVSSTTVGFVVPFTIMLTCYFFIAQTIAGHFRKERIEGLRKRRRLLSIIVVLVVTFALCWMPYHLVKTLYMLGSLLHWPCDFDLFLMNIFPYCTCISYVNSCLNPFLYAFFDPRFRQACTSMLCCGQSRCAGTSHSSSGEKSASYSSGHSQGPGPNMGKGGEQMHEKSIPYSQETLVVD
# Experiment: Determination of agonism on the human apelin receptor by a calcium fluorescence assay (FLIPR)
# Type: cell-based
# Conditions: EC50 (APJ agonism), HEK293 cells stably transfected with human apelin receptor and Giaq protein, Fluo-4 calcium fluorescence
# In short: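 Agonist EC50s come from peak intracellular calcium transients recorded by FLIPR Tetra, scaled to the 1 μM apelin-13 maximum per plate. Test system: HEK293 stably transfected with human apelin receptor plus Giaq, Fluo-4-loaded (4 μM, 1 h, 37 °C, pH 7.4 buffer with probenecid); ≥7 concentrations, triplicates.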
row,Compound,EC50
1,"CCC(CC)n1c(Cc2cccs2)nc2cc(C(=O)N[C@H](CO)C(C)(C)C)ccc21 [Example 192, 1-(1-Ethyl-propyl)-2-thiophen-2-ylmethyl-1H-benzoimidazole-5-carboxylic acid ((S)-1-hydroxymethyl-2,2-dimethyl-propyl)-amide]",14000 nM

# Same assay, conditions: HEK293 cells stably transfected with human apelin receptor and Giaq protein, Fluo-4 calcium fluorescence, read-out: EC50 (APJ agonism)
row,Compound,EC50
1,"CCC(CC)n1c(Cc2cccs2)nc2cc(C(=O)N[C@@H](CC(C)C)C(=O)N3CCN(c4ccccc4OC)CC3)ccc21 [Example 315, 1-(1-Ethyl-propyl)-2-thiophen-2-ylmethyl-1H-benzoimidazole-5-carboxylic acid {(S)-1-[4-(2-methoxy-phenyl)-piperazine-1-carbonyl]-3-methyl-butyl}-amide]",2450 nM
2,"CCC(CC)n1c(Cc2cccs2)nc2cc(C(=O)N[C@@H](CC(C)C)C(=O)N3CCCC3)ccc21 [Example 379, 1-(1-Ethyl-propyl)-2-thiophen-2-ylmethyl-1H-benzoimidazole-5-carboxylic acid [(S)-3-methyl-1-(pyrrolidine-1-carbonyl)-butyl]-amide]",1800 nM
3,"CCC(CC)n1c(Cc2cccs2)nc2cc(C(=O)N[C@@H](CC(C)C)C(=O)N[C@H]3C[C@@H]3c3ccccc3)ccc21 [Example 259, 1-(1-Ethyl-propyl)-2-thiophen-2-ylmethyl-1H-benzoimidazole-5-carboxylic acid [(S)-3-methyl-1-((1S,2R)-2-phenyl-cyclopropylcarbamoyl)-butyl]-amide]",6650 nM
4,"CC1CCCCC1n1c(Cc2cccs2)nc2cc(C(=O)N[C@@H](CC3CCCCC3)C(=O)O)ccc21 (stereo partly drawn) [Example 15, (S)-3-Cyclohexyl-2-{[1-(2-methyl-cyclohexyl)-2-thiophen-2-ylmethyl-1H-benzoimidazole-5-carbonyl]-amino}-propionic acid]",254 nM
5,"O=C(O)C[C@H](Cc1ccccc1)NC(=O)c1ccc2c(c1)nc(Cc1cccs1)n2C1CCCCC1C(F)(F)F (stereo partly drawn) [Example 103, (S)-4-Phenyl-3-{[2-thiophen-2-ylmethyl-1-(2-trifluoromethyl-cyclohexyl)-1H-benzoimidazole-5-carbonyl]-amino}-butyric acid]",11000 nM
6,"CCC(CC)n1c(Cc2cccs2)nc2cc(C(=O)N[C@@H](CC(C)C)C(=O)NC3CCN(c4ncccn4)CC3)ccc21 [Example 352, 1-(1-Ethyl-propyl)-2-thiophen-2-ylmethyl-1H-benzoimidazole-5-carboxylic acid [(S)-3-methyl-1-(1-pyrimidin-2-yl-piperidin-4-ylcarbamoyl)-butyl]-amide]",2980 nM
7,"CCC(CC)n1c(Cc2cccs2)nc2cc(C(=O)N[C@@H](CC(C)C)C(=O)NC3CCN(Cc4cccc(F)c4)CC3)ccc21 [Example 301, 1-(1-Ethyl-propyl)-2-thiophen-2-ylmethyl-1H-benzoimidazole-5-carboxylic acid {(S)-1-[1-(3-fluoro-benzyl)-piperidin-4-ylcarbamoyl]-3-methyl-butyl}-amide]",2460 nM
8,"CC1CCCCC1n1c(Cc2cccs2)nc2cc(C(=O)N[C@@H](CC3CCCCC3)C(=O)O)ccc21 (single isomer, unassigned) [Example 427]",1320 nM
9,"CCC(CC)n1c(Cc2cccs2)nc2cc(C(=O)N[C@@H](CC(C)C)C(=O)N3CCC(N4CCOCC4)CC3)ccc21 [Example 334, 1-(1-Ethyl-propyl)-2-thiophen-2-ylmethyl-1H-benzoimidazole-5-carboxylic acid [(S)-3-methyl-1-(4-morpholin-4-yl-piperidine-1-carbonyl)-butyl]-amide]",412 nM
10,"CCC(CC)n1c(Cc2cccs2)nc2cc(C(=O)NC(CC(C)C)c3cccnc3)ccc21 (centres unmarked) [Example 478, 1-(1-Ethyl-propyl)-2-thiophen-2-ylmethyl-1H-benzoimidazole-5-carboxylic acid (3-methyl-1-pyridin-3-yl-butyl)-amide]",3150 nM
11,"CCC(CC)n1c(Cc2cccs2)nc2cc(C(=O)N[C@@H](CC(C)C)C(=O)NCCCCN(CC)CC)ccc21 [Example 261, 1-(1-Ethyl-propyl)-2-thiophen-2-ylmethyl-1H-benzoimidazole-5-carboxylic acid [(S)-1-(4-diethylamino-butylcarbamoyl)-3 methyl-butyl]-amide]",269 nM
12,"CCCC[C@H](NC(=O)c1ccc2c(c1)nc(Cc1cccs1)n2C1CCCCC1C)C(=O)O (single isomer, unassigned) [Example 421]",20000 nM
13,"CCC(CC)n1c(Cc2cccs2)nc2cc(C(=O)N[C@@H](CC(C)C)C(=O)NCCCOCc3ccccc3)ccc21 [Example 389, 1-(1-Ethyl-propyl)-2-thiophen-2-ylmethyl-1H-benzoimidazole-5-carboxylic acid [(S)-1-(3-benzyloxy-propylcarbamoyl)-3-methyl-butyl]-amide]",17100 nM
14,"CCC(CC)n1c(Cc2cccs2)nc2cc(C(=O)NC(CC3CCC(C)CC3)C(=O)O)ccc21 (centres unmarked) [Example 36, 2-{[1-(1-Ethyl-propyl)-2-thiophen-2-ylmethyl-1H-benzoimidazole-5-carbonyl]-amino}-3-(4-methyl-cyclohexyl)-propionic acid]",1260 nM
15,"CCC(CC)n1c(Cc2cccs2)nc2cc(C(=O)N[C@@H](CC(C)C)C(=O)NCC3CCCN(CC)C3)ccc21 (stereo partly drawn) [Example 303, 1-(1-Ethyl-propyl)-2-thiophen-2-ylmethyl-1H-benzoimidazole-5-carboxylic acid {(S)-1-[(1-ethyl-piperidin-3-ylmethyl)-carbamoyl]-3-methyl-butyl}-amide]",214 nM
16,"CCC(CC)n1c(Cc2cccs2)nc2cc(C(=O)N[C@@H](CC(C)C)C(=O)N3CCC(N(CC)Cc4ccccc4)CC3)ccc21 [Example 336, 1-(1-Ethyl-propyl)-2-thiophen-2-ylmethyl-1H-benzoimidazole-5-carboxylic acid {(S)-1-[4-(benzyl-ethyl-amino)-piperidine-1-carbonyl]-3-methyl-butyl}-amide]",1260 nM
17,"CCC(CC)n1c(Cc2cccs2)nc2cc(C(=O)N[C@H](CSc3nnc[nH]3)CC(C)C)ccc21 [Example 483, 1-(1-Ethyl-propyl)-2-thiophen-2-ylmethyl-1H-benzoimidazole-5-carboxylic acid [(S)-3-methyl-1-(4H-[1,2,4]triazol-3-ylsulfanylmethyl)-butyl]-amide]",2080 nM
18,"CCC(CC)n1c(Cc2cccs2)nc2cc(C(=O)N[C@@H](CC(C)C)C(=O)NC3COC4(CCCCC4)C3)ccc21 (stereo partly drawn) [Example 397, 1-(1-Ethyl-propyl)-2-thiophen-2-ylmethyl-1H-benzoimidazole-5-carboxylic acid [(S)-3-methyl-1-(1-oxa-spiro[4.5]dec-3-ylcarbamoyl)-butyl]-amide]",8740 nM
19,"C[C@@H]1CCCC[C@H]1n1c(Cc2cncs2)nc2cc(C(=O)N[C@@H](CC3CCCCC3)C(=O)O)ccc21 [Example 37, (S)-3-Cyclohexyl-2-{[1-((1R,2R)-2-methyl-cyclohexyl)-2-thiazol-5-ylmethyl-1H-benzoimidazole-5-carbonyl]-amino}-propionic acid]",886 nM
20,"C[C@@H]1CCCC[C@H]1n1c(Cc2cccs2)nc2cc(C(=O)NC(CC3CCC(C)(C)CC3)C(=O)O)ccc21 (single isomer, unassigned) [Example 446]",2140 nM
21,"CC(C)C[C@H](NC(=O)c1ccc2c(c1)nc(Cc1ccco1)n2C1CCCCC1C)C(=O)O (stereo partly drawn) [Example 86, (S)-2-{[2-Furan-2-ylmethyl-1-(2-methyl-cyclohexyl)-1H-benzoimidazole-5-carbonyl]-amino}-4-methyl-pentanoic acid]",88 nM
22,"CCC(CC)n1c(Cc2cccs2)nc2cc(C(=O)N[C@@H](CC(C)C)C(=O)N[C@@H](C)COC)ccc21 [Example 370, 1-(1-Ethyl-propyl)-2-thiophen-2-ylmethyl-1H-benzoimidazole-5-carboxylic acid [(S)-1-((S)-2-methoxy-1-methyl-ethylcarbamoyl)-3-methyl-butyl]-amide]",2850 nM
23,"CC(C)C[C@H](NC(=O)c1ccc2c(c1)nc(Cc1ccco1)n2C1CCCCC1C)C(=O)O (single isomer, unassigned) [Example 417]",715 nM
24,"C[C@@H]1CCCC[C@H]1n1c(Cc2cccs2)nc2cc(C(=O)N[C@@H](CC3CCCCC3)[C@H](O)CC(=O)O)ccc21 [Example 74, (3R,4S)-5-Cyclohexyl-3-hydroxy-4-{[1-((1R,2R)-2-methyl-cyclohexyl)-2-thiophen-2-ylmethyl-1H-benzoimidazole-5-carbonyl]-amino}-pentanoic acid]",140 nM
25,"C[C@@H]1CCCC[C@H]1n1c(Cc2cccs2)nc2cc(C(=O)NC(CC(=O)O)C3CCCCC3)ccc21 (single isomer, unassigned) [Example 463]",2480 nM
26,"C[C@@H]1CCCC[C@H]1n1c(Cc2cccs2)nc2cc(C(=O)NC(CC3CCCCCC3)C(=O)O)ccc21 (single isomer, unassigned) [Example 451]",1230 nM
27,"CCC(CC)n1c(Cc2cccs2)nc2cc(C(=O)NC(CO)c3ccccc3)ccc21 (centres unmarked) [Example 202, 1-(1-Ethyl-propyl)-2-thiophen-2-ylmethyl-1H-benzoimidazole-5-carboxylic acid (2-hydroxy-1-phenyl-ethyl)-amide]",14400 nM
28,"CCC(CC)n1c(Cc2cccs2)nc2cc(C(=O)N[C@@H](CC(C)C)C(=O)NC3C[C@H]4CC[C@@H](C3)N4C)ccc21 (stereo partly drawn) [Example 273, 1-(1-Ethyl-propyl)-2-thiophen-2-ylmethyl-1H-benzoimidazole-5-carboxylic acid [(S)-3-methyl-1-((1R,5S)-8-methyl-8-aza-bicyclo[3.2.1]oct-3-ylcarbamoyl)-butyl]-amide]",212 nM
